In PMC12389269, “Heteroaryl-Capped Hydroxamic Acid Derivatives with Varied Linkers: Synthesis and Anticancer Evaluation with Various Apoptosis Analyses in Breast Cancer Cells, Including Docking, Simulation, DFT, and ADMET Studies” (Pharmaceuticals, 2025):

Assays:
HDAC6 = target: T1, HDAC6 (Homo sapiens, UniProt Q9UBN7); assay: HDAC inhibition assay (color de lys ELISA kit), HDAC6; format: biochemical; details: HeLa nuclear extract as source of HDAC activity
T1 construct: The HeLa nuclear extract was used as a source of HDAC activity; host or cells: HeLa (nuclear extract / cells)
T1 sequence (Q9UBN7 1-1215): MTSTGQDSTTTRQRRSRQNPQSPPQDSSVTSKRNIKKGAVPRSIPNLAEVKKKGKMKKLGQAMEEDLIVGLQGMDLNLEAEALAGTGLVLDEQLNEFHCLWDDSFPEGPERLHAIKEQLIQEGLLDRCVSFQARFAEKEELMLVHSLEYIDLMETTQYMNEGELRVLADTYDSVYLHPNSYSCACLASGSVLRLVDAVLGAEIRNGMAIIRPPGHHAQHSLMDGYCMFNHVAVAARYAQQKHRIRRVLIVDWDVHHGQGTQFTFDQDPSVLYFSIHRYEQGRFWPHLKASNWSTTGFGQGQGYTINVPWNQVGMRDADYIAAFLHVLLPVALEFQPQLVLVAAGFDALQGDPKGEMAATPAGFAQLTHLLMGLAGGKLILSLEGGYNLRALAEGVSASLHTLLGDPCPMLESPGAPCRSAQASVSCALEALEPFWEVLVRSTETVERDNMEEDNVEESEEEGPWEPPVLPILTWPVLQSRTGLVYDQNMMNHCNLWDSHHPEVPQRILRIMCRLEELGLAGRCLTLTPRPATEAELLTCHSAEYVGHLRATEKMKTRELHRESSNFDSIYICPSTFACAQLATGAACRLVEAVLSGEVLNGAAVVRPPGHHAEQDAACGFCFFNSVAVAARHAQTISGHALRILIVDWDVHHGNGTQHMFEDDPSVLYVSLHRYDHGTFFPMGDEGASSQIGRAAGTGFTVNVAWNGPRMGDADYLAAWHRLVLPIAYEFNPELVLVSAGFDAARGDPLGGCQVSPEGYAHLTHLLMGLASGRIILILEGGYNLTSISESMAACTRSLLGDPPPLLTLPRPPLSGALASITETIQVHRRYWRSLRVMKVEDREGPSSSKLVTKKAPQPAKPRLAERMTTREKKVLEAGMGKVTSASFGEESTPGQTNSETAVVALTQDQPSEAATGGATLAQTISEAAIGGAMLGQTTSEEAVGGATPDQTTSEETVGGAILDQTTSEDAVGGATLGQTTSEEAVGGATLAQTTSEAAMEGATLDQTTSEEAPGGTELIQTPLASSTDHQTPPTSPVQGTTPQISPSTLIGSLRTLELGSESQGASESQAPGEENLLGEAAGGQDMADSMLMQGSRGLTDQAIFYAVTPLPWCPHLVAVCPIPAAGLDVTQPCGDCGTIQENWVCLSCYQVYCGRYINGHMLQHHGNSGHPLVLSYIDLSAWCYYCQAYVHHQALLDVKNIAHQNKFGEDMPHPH
Experimental: SAHA served as the assay’s positive control. The HeLa nuclear extract was used as a source of HDAC activity. The trypsinized HeLa cells were tallied, put into 96-well microtiter plates, and nurtured. Samples and the standard were placed in wells at a concentration of 100 µL. The culture environment was maintained as per the procedure. 3,3′,5,5′-tetramethylbenzidine (TMB) was included for visualization. Finally, 50 µL of halt solution was smeared. The samples and different SAHA concentrations (0.01, 0.1, 1, 10 μM) were introduced to the appropriate well and left for 72 h. BioTek Epoch (Winooski, VT, USA) microplate reader was used to quantify optical density at 450 nm. The Graph Pad Prism 5 helped to determine the IC50 values.

[1] = tested on: MCF-7 (Human Breast Cancer Cell Line); assay: SRB antiproliferative assay, MCF-7; format: cell-based; details: Homo sapiens, MCF7, MCF-7, 48 h, read-out: GI50
Experimental: Following an extensive review of the literature, we selected human breast cancer (MCF-7, MDA-MB-231) and lung cancer (A549) cell lines to evaluate the anticancer potential of the synthesized compounds, and some compounds with good anti-proliferation activity were again tested to evaluate their cytotoxic potential on A-549, MCF-7, and MDA-MB-231. The same were also tested on one non-cancerous/normal (HEK-293) cell line. All the cell lines for the required screening were developed in a suitable medium comprising 10% FBS and 2mM L-glutamine. Cancerous and non-cancerous/normal cell lines were selected for the cell proliferation and cytotoxicity assay and maintained with 5% CO2 at 37 °C in a CO2 incubator with 100% relative humidity for one complete day before the addition of experimental drugs.
Antiproliferative activity through an SRB assay was performed for all the synthesized compounds on A-549 and MCF-7 cell lines. Around 5000 cells/well were quarantined into a 96-well microtiter plate in 100 μL. The synthesized compounds were solubilized in DMSO and diluted to different concentrations before use. The final-drug-concentration aliquots were poured into microtiter wells, and the plates were incubated for 48 h in regular conditions. After adding the final drug concentration, the cells were allowed to set in place and incubated for 60 min. A total of 50 µL of SRB solution (0.4% w/v) in 1% CH3COOH was poured into each well. The plates were then incubated for 20 min at RT. During subsequent staining, the unbounded dye was removed, and the plate reader recorded the eluted bound stain at 540 nm with a 690 nm reference wavelength. The assay was performed precisely using the appropriate reagents and reaction situation, as per the reported procedure. ADR was selected as the reference drug.

MCF-7 cells = assay: Apoptosis study, acridine orange/ethidium bromide dual staining; format: cell-based, human; details: AO/EtBr staining, MCF-7, 40, 60, 80 µg/mL
Experimental: The staining technique was performed to determine changes in cellular morphology as acridine orange is a cell-permeable dye; i.e., it can enter inside the nucleus and subsequently intercalate with the DNA of both live and apoptotic cells an then emit a green fluorescence. On the other hand, ethidium bromide can only cross the plasma membrane of compromised or late apoptotic cells and bind with their DNA, subsequently radiating an orange to red fluorescence. Therefore, to assess alterations in the morphology of cells, MCF-7 cells were planted in a 12-well plate at a density of 5 × 10^4 cells/well and incubated in humidified air for 24 h at 37 °C. Following cell seeding, MCF-7 cells were exposed to compound VI(i) with at lower (40 µg/mL), IC50 (60 µg/mL), and higher (80 µg/mL) concentrations. Following this, the incubated cells were washed with a buffer (phosphate-buffered saline), and dual staining was executed with acridine orange and ethidium bromide. Then, a 12-well cell culture plate was kept at 37 °C for 30 min of incubation. Consequently, cells were lightly rinsed with phosphate-buffered saline. Following this, pictures were obtained in the inverted fluorescence microscope using the red and green channels for both the dyes.

- IC50 (HDAC6): 13.4 µM
- GI50 [1]: < 10 µg/mL
Structure (SMILES): COc1ccc(-c2cnn(CCCCCC(=O)NO)n2)cc1 [VI(i), N-Hydroxy-6-(4-(4-methoxyphenyl)-2H-1,2,3-triazol-2-yl)hexanamide]
- apoptosis induction (cell morphology) (MCF-7 cells): effectively trigger the apoptotic mode of cell death in breast cancer cells in a concentration-dependent manner
